Biological target: T1, human FSH receptor (Homo sapiens, UniProt P23945)
T1 construct: expressed in transfected cells; host or cells: CHO cells, stably transfected; cotransfected with CRE-luciferase reporter
T1 sequence (P23945 18-695): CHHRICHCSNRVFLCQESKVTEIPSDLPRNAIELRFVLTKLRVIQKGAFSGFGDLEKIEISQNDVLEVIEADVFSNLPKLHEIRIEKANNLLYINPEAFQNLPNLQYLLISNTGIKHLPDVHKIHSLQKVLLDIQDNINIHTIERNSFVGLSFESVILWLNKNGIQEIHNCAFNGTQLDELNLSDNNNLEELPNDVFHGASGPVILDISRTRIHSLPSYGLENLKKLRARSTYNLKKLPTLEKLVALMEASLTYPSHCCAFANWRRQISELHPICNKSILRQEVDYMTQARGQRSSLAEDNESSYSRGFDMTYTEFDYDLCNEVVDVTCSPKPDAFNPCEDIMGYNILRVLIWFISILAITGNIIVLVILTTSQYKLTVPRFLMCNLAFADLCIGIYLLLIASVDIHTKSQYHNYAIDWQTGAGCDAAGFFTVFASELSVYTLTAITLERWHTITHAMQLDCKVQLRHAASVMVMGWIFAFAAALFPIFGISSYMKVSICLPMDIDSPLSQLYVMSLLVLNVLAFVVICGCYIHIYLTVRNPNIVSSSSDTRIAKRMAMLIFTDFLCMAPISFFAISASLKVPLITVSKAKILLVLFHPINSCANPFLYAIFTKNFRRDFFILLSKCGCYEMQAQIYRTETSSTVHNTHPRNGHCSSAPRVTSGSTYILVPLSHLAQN
Assay: Antagonistic activity of compounds at the human FSH receptor expressed in CHO cells (CRE-luciferase reporter)
Format: cell-based
Conditions: CHO cells stably transfected with human FSH receptor and CRE/luciferase reporter; together with 49 μM recFSH; 4 hours incubation; 1% DMSO; read-out: IC50 (concentration of test compound causing half-maximal inhibition of the maximally attainable inhibition of the luciferase stimulation)
Summary of the method: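 Stably transfected CHO cells with a CRE-driven firefly luciferase reporter were co-incubated 4 h at 37 °C with compound (0.316 nM–10.0 μM, duplicate) plus […] recFSH (80% maximal stimulation), 1% DMSO final. Luminescence read after lysis; IC50 and efficacy from inhibition of FSH-induced luciferase signal.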

| SMILES | IC50 [nM] |
| --- | --- |
| COc1cc2c(cc1OC)-c1nc(C(=O)N[C@@H](CO)Cc3c[nH]c4ccccc34)c(-c3ccccc3OC)n1CC2 [Example 68, N—((R)-1-hydroxy-3-(1H-indol-3-yl)propan-2-yl)-8,9-dimethoxy-3-(2-methoxyphenyl)-5,6-dihydroimidazo[2,1-a]isoquinoline-2-carboxamide] | 100 to 1000 |
| COc1ccccc1-c1c(C(=O)N[C@@H](CO)Cc2c[nH]c3ccccc23)nc2n1CCc1cc(OC)c(OC)nc1-2 [Example 70, N—((R)-1-hydroxy-3-(1H-indol-3-yl)propan-2-yl)-8,9-dimethoxy-3-(2-methoxyphenyl)-5,6-dihydroimidazo[1,2-h][1,7]naphthyridine-2-carboxamide] | < 100 |

Reference: patent publication US10155259B2 (Merck Sharp & Dohme B.V., priority 2011, dated 2018)
